These results are taken from patent US12138273B2 (Propella Therapeutics, Inc., priority 2019, dated 2024).

For data set [1] the following is noted: Beagle, dog, in vivo.
The conditions of data set [2]: dog, in vivo. The source says:
An additional study was done using dogs as the animal model instead of rats.

With `C[C@]12CC[C@H](O)CC1=CC[C@@H]1[C@@H]2CC[C@]2(C)C(c3cccnc3)=CC[C@@H]12` [abiraterone, (3β)-17-(pyridin-3-yl) androsta-5, 16-dien-3-ol], in data set [1], the “mean AUCINF following IM administration, corrected for dose and time units” value was determined as 105 ng·h/mL.
For the molecule `CC(=O)O[C@H]1CC[C@@]2(C)C(=CC[C@@H]3[C@@H]2CC[C@]2(C)C(c4cccnc4)=CC[C@@H]32)C1` [abiraterone acetate], in data set [2], the “irritation at the injection site” value is “irritating to the dogs at the injection site”. Besides, in data set [2] (male), the “% F” value came out at 61.7% and the “measurable blood levels out to” value worked out at 504 h. The same molecule displayed an AUCINF/Dose in data set [2] (male, im) of 329.
